Experimental data taken from publication PMC5286421, “Interactions of retinoids with the ABC transporters P-glycoprotein and Breast Cancer Resistance Protein” (Scientific Reports, 2017).

How the values were obtained:
[1] = system: NIH 3T3 / NIH 3T3 MDR1 and MDCK / MDCK ABCG2 cells; assay: DPH steady-state fluorescence anisotropy (membrane fluidity); conditions: retinoids 100 μM, cyclosporin 10 μM, Ko143 2 μM; 10 min 37 °C; all tested cell lines
[2] = ref PubChem Compound Database (CID); cited from earlier work
[3] = system: NIH 3T3 / NIH 3T3 MDR1 and MDCK / MDCK ABCG2 cells; assay: TMA-DPH steady-state fluorescence anisotropy (membrane fluidity); conditions: retinoids 100 μM, cyclosporin 10 μM, Ko143 2 μM; 10 min 37 °C

COc1ccc2c3c([nH]c2c1)[C@H](CC(C)C)N1C(=O)[C@H](CCC(=O)OC(C)(C)C)NC(=O)[C@@H]1C3 [Ko143]
Effect on DPH fluorescence anisotropy [1]: do not affect the overall membrane fluidity
LogP (octanol-water partition coefficient, LogPow) [2]: 3.5
Effect on TMA-DPH fluorescence anisotropy [3]: do not affect the overall membrane fluidity
